Values of other authors, collected in patent US7109171B2, “Methods for treating FSH related conditions with GnRH antagonists” (Praecis Pharmaceuticals Inc., priority 2000, dated 2006).
Square brackets hold non-standard residues; d marks the D form. Peptide text beside a SMILES is read from it. dPhe(4-Cl) = N[C@H](Cc1ccc(Cl)cc1)C(=O)O; d2Nal = N[C@H](Cc1ccc2ccccc2c1)C(=O)O; dCit = NC(=O)NCCC[C@@H](N)C(=O)O; d3Pal = N[C@H](Cc1cccnc1)C(=O)O

What was measured:
FSH = settings: single bolus injection
LH = settings: in vivo

Row | Molecule | effect on FSH levels (FSH) | effect on LH levels (LH)
1 | CC(=O)N[C@H](Cc1ccc2ccccc2c1)C(=O)N[C@H](Cc1ccc(Cl)cc1)C(=O)N[C@H](Cc1cccnc1)C(=O)N[C@@H](CO)C(=O)N[C@@H](Cc1ccc(O)cc1)C(=O)N[C@H](CCCNC(N)=O)C(=O)N[C@@H](CC(C)C)C(=O)N[C@@H](CCCNC(=N)N)C(=O)N1CCC[C@H]1C(=O)N[C@H](C)C(N)=O [Cetrorelix] (Ac-[d2Nal][dPhe(4-Cl)][d3Pal]SY[dCit]LRP[dA]-NH2) | did not significantly affect | reduced
2 | Nal-Glu | did not significantly affect | reduced
